The IC50 is the concentration that inhibits the measured activity by half.

Like-named read-outs stand apart in the source and are kept apart here.

Holding throughout (assay type): cell-based
Assay [1] has as its system P. falciparum CQ-sensitive (Pf3D7). Put plainly: SYBR Green I assay, asynchronous cultures, CQ-sensitive clone. Particulars: Plasmodium falciparum, read-out: Pf3D7 IC50, nM (±SD). The protocol: Initially, antimalarial activity of Compound I was assessed on asynchronous cultures of P. falciparum sensitive (Pf3D7) clone using the SYBR Green assay. […] DMSO was used as a vehicle control, CQ (Chloroquine), DOX (Doxycycline) and DHA (Dihydroartemisinin).

For assay [2], the system named is P. falciparum CQ-resistant (PfDd2). Description: SYBR Green I assay, asynchronous cultures, CQ-resistant clone. Particulars: Plasmodium falciparum, read-out: PfDd2 IC50, nM (±SD).
For assay [3], the system named is Field isolates from Kenya (P. falciparum infected blood). Put plainly: Screening against freshly collected field isolates. The settings on record: Plasmodium falciparum, read-out: Field isolates from Kenya IC50, nM (±SD).
[4] abbreviates: asynchronous cultures, 37° C., 72 hours, SYBR Green I.

Regarding `CCN(CC)CCCC(C)Nc1ccnc2cc(Cl)ccc12` (stereo not drawn) [Chloroquine, reference compound], the values for the IC50 in assay [1] (72 h), in assay [2] (72 h) and in assay [3] were 32.3 nM, 137 nM and 75.2 nM, respectively.

For the compound `C[C@H]1[C@@H](O)O[C@@H]2O[C@@]3(C)CC[C@H]4[C@H](C)CC[C@@H]1[C@@]24OO3` [Dihydroartemisinin, reference compound], the results for the IC50 in assay [1] (setting [4]), in assay [2] (setting [4]) and in assay [3] (Table 1) were 27 nM, 46 nM and 7.37 nM, respectively.

The record behind these values is patent US11485714B2, “Hydroxyethylamine-based piperazine compounds, and methods of producing and using the same for treating disease” (National Institute of Immunology, priority 2020, dated 2022).
